# According to US9260408B2, “Dihydroquinoline-2-one derivatives” (Hoffmann-La Roche Inc., priority 2011, dated 2016):
# pEC50: −log10 of the molar value. Structures can show the parent of a compound that is named as a salt.
# Legend:
# [1] = molecular target: T1, human CYP11B2 (Homo sapiens, UniProt P19099); test: G-402 cellular enzyme assay, human CYP11B2 (aldosterone release, HTRF); assay type: cell-based; settings: G-402 cells expressing human CYP11B2; 1 μM Deoxycorticosterone
# T1 construct: expressed in transfected cells
# T1 sequence (P19099 25-503): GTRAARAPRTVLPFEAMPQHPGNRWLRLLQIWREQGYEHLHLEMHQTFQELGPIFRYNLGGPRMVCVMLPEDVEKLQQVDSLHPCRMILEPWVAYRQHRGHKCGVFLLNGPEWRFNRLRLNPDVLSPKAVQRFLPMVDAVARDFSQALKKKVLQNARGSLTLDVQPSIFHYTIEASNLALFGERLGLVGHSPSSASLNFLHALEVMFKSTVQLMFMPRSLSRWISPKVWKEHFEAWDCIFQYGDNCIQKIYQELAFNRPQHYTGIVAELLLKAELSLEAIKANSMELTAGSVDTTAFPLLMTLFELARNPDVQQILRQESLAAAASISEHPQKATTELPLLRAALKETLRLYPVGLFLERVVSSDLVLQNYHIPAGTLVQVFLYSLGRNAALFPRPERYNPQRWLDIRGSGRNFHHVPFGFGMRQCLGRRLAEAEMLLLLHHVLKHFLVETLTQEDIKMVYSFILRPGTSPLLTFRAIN
# Excerpt: (§1) Herein we identified the use of the G-402 cell line as a host cell to ectopically express (transiently or stably) enzymes of the CYP11 family. Specifically we developed stable G-402 cells expressing ectopically human CYP11B1, human CYP11B2, human CYP11A1, cynomolgus CYP11B1 or cynomolgus CYP11B2 enzyme activity. Importantly the identified cell line G-402 expresses co-factors (adrenodoxin and adrenodoxin reductase) important for the activity of the CYP11 family and no relevant enzyme activity of the CYP11 family (in comparison to H295R cells) was detected in these cells. Therefore the G-402 cell line is uniquely suited as a host cell for the ectopic expression of enzymes from the CYP11 family.
# (§2) G-402 cells can be obtained from ATCC(CRL-1440) and were originally derived from a renal leiomyoblastoma.
# (§3) The expression plasmids contains the ORF for either human/cyno CYP11B1 or CYP11B2 under the control of a suitable promoter (CMV-promoter) and a suitable resistance marker (neomycin). Using standard techniques the expression plasmid is transfected into G-402 cells and these cells are then selected for expressing the given resistance markers. Individual cell-clones are then selected and assessed for displaying the desired enzymatic activity using 11-Deoxycorticosterone (Cyp11B2) or 11-Deoxycortisol (Cyp11B1) as a substrate.
# (§4) G-402 cells expressing CYP11 constructs were established as described above and maintained in McCoy's 5a Medium Modified, ATCC Catalog No. 30-2007 containing 10% FCS and 400 μg/ml G418 (Geneticin) at 37° C. under an atmosphere of 5% CO2/95% air. Cellular enzyme assays were performed in DMEM/F12 medium containing 2.5% charcoal treated FCS and appropriate concentration of substrate (0.3-10 uM 11-Deoxycorticosterone, 11-Deoxycortisol or Corticosterone). For assaying enzymatic activity, cells were plated onto 96 well plates and incubated for 16 h. An aliquot of the supernatant is then transferred and analyzed for the concentration of the expected product (Aldosterone for CYP11B2; Cortisol for CYP11B1). The concentrations of these steroids can be determined using HTRF assays from CisBio analyzing either Aldosterone or Cortisol.
# (§5) Inhibition of the release of produced steroids can be used as a measure of the respective enzyme inhibition by test compounds added during the cellular enzyme assay. The dose dependent inhibition of enzymatic activity by a compound is calculated by means of plotting added inhibitor concentrations (x-axes) vs. measured steroid/product level (y-axes). The inhibition is then calculated by fitting the following 4-parameter sigmoidal function (Morgan-Mercer-Flodin (MMF) model) to the raw data points using the least squares method:
# (§6) [formula] wherein, A is the maximum y value, B is the EC50 factor determined using XLFit, C is the minimum y value and D is the slope value.
# (§7) EC50 values for compounds claimed herein were tested with the G402-based assay system described. Cyp11B2 enzyme activity was tested in presence of 1 μM Deoxycorticosterone and variable amounts of inhibitors; Cyp11B1 enzyme activity was tested in presence of 1 μM Deoxycortisol and variable amounts of inhibitors.
# [2] = molecular target: T2, human CYP11B1 (Homo sapiens, UniProt P15538); test: G-402 cellular enzyme assay, human CYP11B1 (cortisol release, HTRF); assay type: cell-based; settings: G-402 cells expressing human CYP11B1; 1 μM Deoxycortisol
# T2 construct: expressed in transfected cells
# T2 sequence (P15538 25-503): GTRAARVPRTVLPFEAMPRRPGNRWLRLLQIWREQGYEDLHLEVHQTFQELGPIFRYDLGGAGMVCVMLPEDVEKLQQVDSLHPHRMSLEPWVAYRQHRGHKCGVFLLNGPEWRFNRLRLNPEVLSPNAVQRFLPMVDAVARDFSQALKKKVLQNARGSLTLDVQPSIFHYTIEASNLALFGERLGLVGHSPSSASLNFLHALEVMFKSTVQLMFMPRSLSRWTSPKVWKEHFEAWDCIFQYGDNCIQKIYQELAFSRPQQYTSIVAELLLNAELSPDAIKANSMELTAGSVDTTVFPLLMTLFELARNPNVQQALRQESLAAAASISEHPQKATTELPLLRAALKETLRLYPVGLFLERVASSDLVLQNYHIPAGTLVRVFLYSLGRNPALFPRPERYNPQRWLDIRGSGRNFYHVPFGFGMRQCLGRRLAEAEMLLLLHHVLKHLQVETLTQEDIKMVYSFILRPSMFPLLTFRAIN
# Excerpt: as §1, §2, §3, §4, §5, §6, §7
Structure (SMILES),pEC50 [1],pEC50 [2]
CCC(=O)N1CC[C@H]1COc1cncc(-c2ccc3c(c2)CCC(=O)N3C)c1 [Example 94],7.64,5.87
"CN1C(=O)CCc2cc(-c3cncc(O[C@H]4CCN(C(=O)C5CC5)C4)c3)ccc21 [Example 76, 6-[5-((S)-1-Cyclopropanecarbonyl-pyrrolidin-3-yloxy)-pyridin-3-yl]-1-methyl-3,4-dihydro-1H-quinolin-2-one]",7.64,6.34
"Cc1noc(C)c1C(=O)N(C)Cc1cncc(-c2ccc3c(c2)CCC(=O)N3C)c1 [Example 188, 3,5-Dimethyl-isoxazole-4-carboxylic acid methyl-[5-(1-methyl-2-oxo-1,2,3,4-tetrahydro-quinolin-6-yl)-pyridin-3-ylmethyl]-amide]",7.85,6.24
"CC(C)[C@H](CO)Nc1cncc(-c2ccc3c(c2)CCC(=O)N3C)c1 [Example 30, 6-[5-((R)-1-Hydroxymethyl-2-methyl-propylamino)-pyridin-3-yl]-1-methyl-3,4-dihydro-1H-quinolin-2-one]",6.77,4.99
"CN1C(=O)CCc2cc(-c3cncc(CNS(=O)(=O)c4cn(C)cn4)c3)ccc21 [Example 157, 1-Methyl-1H-imidazole-4-sulfonic acid [5-(1-methyl-2-oxo-1,2,3,4-tetrahydro-quinolin-6-yl)-pyridin-3-ylmethyl]-amide]",6.33,5.49
"Cc1c(-c2ccc3c(c2)CCC(=O)N3C)cncc1C(C)N[S@+]([O-])C(C)(C)C (single isomer, unassigned) [Example 239, (R)-2-Methyl-propane-2-sulfinic acid {(R or S)-1-[4-methyl-5-(1-methyl-2-oxo-1,2,3,4-tetrahydro-quinolin-6-yl)-pyridin-3-yl]-ethyl}-amide]",7.68,6.40
"Cc1c(-c2cc3c(cc2F)N(C)C(=O)CC3)cncc1C(C)NC(=O)c1ncccc1Cl (single isomer, unassigned) [Example 258, 3-Chloro-pyridine-2-carboxylic acid {(R or S)-1-[5-(7-fluoro-1-methyl-2-oxo-1,2,3,4-tetrahydro-quinolin-6-yl)-4-methyl-pyridin-3-yl]ethyl}-amide]",7.89,6.54
Cc1noc(C)c1C(=O)NC1(c2cncc(-c3ccc4c(c3)CCC(=O)N4C)c2)CC1 [Example 113],7.12,5.80
"CN1C(=O)CCc2nc(-c3cccnc3)ccc21 [Example 34, 1-Methyl-6-pyridin-3-yl-3,4-dihydro-1H-[1,5]naphthyridin-2-one]",6.38,4.53
"CCC(=O)NC(C)c1cncc(-c2ccc3c(c2)CCC(=O)N3C)c1Cl (single isomer, unassigned) [Example 261, N-{(R or S)-1-[4-Chloro-5-(1-methyl-2-oxo-1,2,3,4-tetrahydro-quinolin-6-yl)-pyridin-3-yl]-ethyl}-propionamide]",7.21,5.91
CN1C(=O)CCc2cc(-c3cncc(NCCO)n3)ccc21 [Example 24],8.15,6.66
"CN1C(=O)CCc2cc(-c3cncc(C4(N)CC4)c3)ccc21 [Example 59, 6-[5-(1-Amino-cyclopropyl)-pyridin-3-yl]-1-methyl-3,4-dihydro-1H-quinolin-2-one]",7.48,6.15
"CCS(=O)(=O)NCc1cncc(-c2cc(F)c3c(c2)CCC(=O)N3C)c1 [Example 208, Ethanesulfonic acid [5-(8-fluoro-1-methyl-2-oxo-1,2,3,4-tetrahydro-quinolin-6-yl)-pyridin-3-ylmethyl]-amide]",7.23,5.38
"CN1C(=O)CCc2cc(-c3cncc(OCCNC(=O)OC(C)(C)C)c3)c(F)cc21 [Example 232, {2-[5-(7-Fluoro-1-methyl-2-oxo-1,2,3,4-tetrahydro-quinolin-6-yl)-pyridin-3-yloxy]-ethyl}-carbamic acid tert-butyl ester]",9.00,7.80
"CCS(=O)(=O)NCc1cncc(-c2cc(F)c3c(ccc(=O)n3C)c2)c1 [Example 263, Ethanesulfonic acid [5-(8-fluoro-1-methyl-2-oxo-1,2-dihydro-quinolin-6-yl)-pyridin-3-ylmethyl]-amide]",5.51,
"COc1cc(C(=O)N2CC3(C2)CN(c2cncc(-c4ccc5c(c4)CCC(=O)N5C)n2)C3)on1 [Example 74, 6-{6-[6-(3-Methoxy-isoxazole-5-carbonyl)-2,6-diaza-spiro[3.3]hept-2-yl]-pyrazin-2-yl}-1-methyl-3,4-dihydro-1H-quinolin-2-one]",6.54,
Cc1cc(Cl)cnc1C(=O)NCc1cncc(-c2ccc3c(c2)CCC(=O)N3C)c1 [Example 120],,8.10
"CN1C(=O)CCc2cc(-c3cncc(C4(N[S@+]([O-])C(C)(C)C)COC4)c3)ccc21 [Example 54, (R)-2-Methyl-propane-2-sulfinic acid {3-[5-(1-methyl-2-oxo-1,2,3,4-tetrahydro-quinolin-6-yl)-pyridin-3-yl]-oxetan-3-yl}-amide]",,5.41
"CN1C(=O)CCc2cc(-c3cncc(C4CCN(C(=O)OC(C)(C)C)CC4)c3)ccc21 [Example 260, 5-(1-Methyl-2-oxo-1,2,3,4-tetrahydro-quinolin-6-yl)-3′,4′,5′,6′-tetrahydro-2′H-[3,4′]bipyridinyl-1′-carboxylic acid tert-butyl ester]",,9.00
"CCS(=O)(=O)NC(c1cncc(-c2ccc3c(c2)CCC(=O)N3C)c1)C(C)C (racemic) [Example 176, (rac)-Ethanesulfonic acid {2-methyl-1-[5-(1-methyl-2-oxo-1,2,3,4-tetrahydro-quinolin-6-yl)-pyridin-3-yl]-propyl}-amide]",6.89,
"CN1C(=O)CCc2cc(-c3cncc(OC[C@@H]4CCCN4)c3)ccc21 [Example 66, 1-Methyl-6-[5-((S)-1-pyrrolidin-2-ylmethoxy)-pyridin-3-yl]-3,4-dihydro-1H-quinolin-2-one hydrochloride]",6.15,
"CN1C(=O)CCc2cc(-c3cncc(O[C@H]4CCNC4)c3)ccc21 [Example 60, 1-methyl-6-[5-((S)-pyrrolidin-3-yloxy)-pyridin-3-yl]-3,4-dihydro-1H-quinolin-2-one hydrochloride]",6.16,
"CCS(=O)(=O)N(C)CCOc1cncc(-c2cc3c(cc2F)N(C)C(=O)CC3)c1 [Example 248, Ethanesulfonic acid {2-[5-(7-fluoro-1-methyl-2-oxo-1,2,3,4-tetrahydro-quinolin-6-yl)-pyridin-3-yloxy]-ethyl}-methyl-amide]",,8.15
